Source: paper PMC3851587 (Molecular and biochemical parasitology, 2013)

Tests used:
Chimera N3A = test: [3H]-adenosine uptake in transfected L. donovani cells; assay type: cell-based, Crithidia fasciculata; settings: labelled compound
Chimera N1A = test: as above; assay type: cell-based, Crithidia fasciculata; settings: labelled compound

Nc1ncnc2c1ncn2[C@@H]1O[C@H](CO)[C@@H](O)[C@H]1O [adenosine]
Km (Chimera N3A): 1.2 ± 0.16 µM | Km (Chimera N1A): 0.5 ± 0.14 µM
